The results in this text go back to article PMC6571673, “Cytostatic and Cytotoxic Natural Products against Cancer Cell Models” (Molecules, 2019).

Read-outs that look alike come from different tables or passages of the source.

One series deals with SUP-B15. The experiment in a line: ApoTox-Glo triplex assay. It counts as cell-based, human. As to conditions: SUP-B15, 36 h; 9 0.2–100 µM, 10 0.02–10 µM. How it is done:
Cells (9.5 × 10^4 cells/well in 75 µL) were dispensed in 96-well black flat bottom (8807BC, Corning) plates. The cells were incubated for 12 h at 37 °C and treated with compounds (25 µL) for 36 h. DMSO was used as a negative control and camptothecan was used as the positive control. Then, the experiment was stopped by adding the Viability/Cytotoxicity Reagent, and briefly mixed by orbital shaking (300–500 rpm for ~30 s). Plates were incubated for 30 min at 37 °C and fluorescence was measured at the wavelength 400Ex/505Em for viability and 485Ex/520Em for cytotoxicity in an Envision plate reader (Perkin Elmer). Finally, the Caspase-Glo® 3/7 Reagent was added, and the plates were mixed by orbital shaking (300–500 rpm for ~30 s), followed by an additional 30 min incubation at RT. Luminescence was recorded with a plate reader (Envision, Perkin Elmer) to capture caspase 3/7 activation and determine apoptosis induction.

The test system of a further series is PBMC. Briefly: CTG viability assay (CellTiter-Glo, 72 h). It counts as cell-based. Particulars: Homo sapiens, non-cancerous cells. The method, then: (§1) All human cell lines were incubated at 37 °C in a 5% CO2 atmosphere and maintained under sterile conditions. Cells were tested for Mycoplasma (Lonza, Alpharetta, GA, USA) using the manufacturer’s conditions prior to experiments. Cell lines were purchased from American Type Culture Collection (ATCC, Manassas, VA, USA) or Leibniz-Institute Deutsche Sammlung von Mikroorganismen und Zellkulturen GmbH (DSMZ, Braunschweig, Germany) and cultured without antibiotics unless stated. Leukemia cells were cultured in RPMI and supplemented with 10% fetal bovine serum (FBS, Hyclone, Logan, UT, USA). SUP-B15, and KOPN-8 lines were cultured in RPMI supplemented with 10% FBS (Hyclone), 1% GlutaMAX™, 1% Pen/Step, and 0.1% β-mercaptoethanol. BJ cells were cultured in EMEM media supplemented with 10% FBS (Hyclone). Breast cancer cells (MDA-MB-231 & SUM149) were cultured in DMEM and Ham’s F12 respectively, supplemented with 10% FBS, 1% GlutaMAX™, 1% Pen/Step, and 2 µM cortisol/1 µg/mL insulin for SUM149. Both cells were grown to 80% confluence densities as recommended by ATCC. PBMCs were supplemented with concanavalin-A (5 μg/mL) and IL-2 (50 U/ml). To test general cytotoxicity, the following cell numbers were used for 384 well plates: KOPN-8 (ACC 552, infant human B cell precursor acute lymphoblastic leukemia with MLL-MLLt1/ENL fusion, 1000 cells/well), SUP-B15 (ACC389, human B cell precursor acute lymphoblastic leukemia of pediatric second relapse carrying the ALL-variant (m-bcr) of BCR-ABL1 fusion gene (e1-a2), 1600 cells/well), NALM-06 (DSMZ ACC128, non-T/non-B ALL at relapse with P15INK4B and P16INK4A deletions, 1200 cells/well), UoC-B1 (pediatric BCP-ALL at second relapse with TCF3/E2A-HFL fusion, 1000 cells/well), BJ (CRL-2522, normal human foreskin fibroblast cells, 400 cells/well) and PBMCs (periphery blood monocyte cells from healthy donors, IBC#BDC046, 10,000 cells/well).
(§2) Cytotoxicity evaluation was performed using the CellTiter-Glo Luminescent Cell Viability Assay kit (G7570, Promega, Madison, WI, USA), according to the manufacturer’s instructions. Briefly, the cell concentrations used were experimentally determined to ensure logarithmic growth during the 72-h duration of the experiment, and avoid adverse effects on cell growth by DMSO exposure. 1 × 10^3–4.8 × 10^3 or 4 × 10^2–1.2 × 10^3 cells/well were seeded in 96 or 384-well white flat-bottomed plates (3610 or 8804BC, Corning, Corning, NY, USA) in 100 µL or 30 µL/well, respectively. The plates were incubated at 37 °C in 5% CO2 for 24 h before drugging. Test compounds (10 mM in DMSO) in nine 3-fold serial dilutions were dispensed via pintool (Biomek liquid handler, Beckman, Indianapolis, USA) to assay plates. The final concentration of DMSO was 0.3% (v/v) in each well. The positive controls included staurosporine (10 μM), and gambogic acid (10 μM). The plates were incubated for 72 h at 37 °C in 5% CO2, then quenched with CellTiter-Glo® (Promega, Madison, WI, USA, 50 µL/96 or 30 µL/384), centrifuged at 1000 rpm for 1 min and incubated at RT for 20 min. Luminescence was recorded with a plate reader (Envision, Perkin Elmer, Waltham, MA, USA). The mean luminescence of each experimental treatment group was normalized as a percentage of the mean intensity of untreated controls. EC50 values were calculated by Pipeline Pilot software (Accelrys, Enterprise Platform, San Diego, CA, USA).

The test system of a further series is KOPN-8. The experiment in a line: CTG viability assay (CellTiter-Glo, 72 h). As to conditions: Homo sapiens, mean ± SEM of triplicates. It counts as cell-based. The method, then:
as §1, §2
A general note: In ATP-based viability assays light output follows the ATP content of the culture.

For another series, the system named is UoC-B1. The experiment in a line: CTG viability assay (CellTiter-Glo, 72 h). It counts as cell-based. As to conditions: Homo sapiens, mean ± SEM of triplicates. How it is done: as §1, §2
In another series the test system is NALM-06. The experiment in a line: CTG viability assay (CellTiter-Glo, 72 h). It counts as cell-based. Particulars: Homo sapiens, mean ± SEM of triplicates. How it is done: as §1, §2
A further series is described as follows: Aqueous solubility. Particulars: physiological pH (7.40), compared to controls. It counts as physicochemical. The source says: (§3) To gain further information regarding intracellular compound localization, studies were extended to include a marker for the ER (Figure 8). The staining pattern for the individual probes are shown in Figure 8A (ER), Figure 8B (Lysosome) and Figure 8D (probe 9a). […] Moreover, when all three channels were merged, white specks were observed, indicating co-localization of probe 9a with cellular structures that are stained by both ER and lysosomal marker dyes (Figure 8F). […] These mechanisms provide a plausible explanation for the lower potency of compound 9 compared to compound 10. Finally, in vitro ADME (absorption, distribution, metabolism, and elimination) profiles were evaluated for compounds 9 and 10 to compare with the obtained cellular data (Supplementary Material, Figure S10). The aqueous solubility properties at physiological pH (7.40) of compounds 9 and 10 were good compared to controls. […] The combined findings indicate that the steric-effects of the hydroxysuccinate appendage of compound 10 renders it less prone to degradation by lysosomal activity or other competing cellular removal mechanisms.

A further series is described as follows: Plasma stability assay. It counts as in vitro ADME. Particulars: read-out: plasma stability t1/2.
Text: as §3

The subject of the next series is SUM149. The experiment in a line: Propidium iodide (PI) assay, 48 h. Particulars: SUM149, 48 h, 3 µM.

Description for SUM149: The first step was to evaluate if the compounds display cytotoxicity against the adherent cells. Propidium iodide (PI) assay was performed for the drug resistant solid tumor cellular models (triple negative breast cancer models: SUM149 and MDA-MB-231) for 48 h (Figure 5) [30, 31].

Regarding `COC(=O)C[C@](O)(CCCC(C)(C)O)C(=O)O[C@@H]1C(OC)=C[C@]23CCCN2CCc2cc4c(cc2[C@H]13)OCO4` [Compound 10, homoharringtonine, reference compound], in the series with SUP-B15, the “caspase 3/7 activity” value is listed as “increased caspase 3/7 activity”. For the same compound, the “cytotoxicity by membrane integrity (bis-AAF-RF110)” value in the series on SUP-B15 is listed as “little cytotoxic effects”. Further, in the series on SUP-B15, the “viability (GF-AFC)” value is listed as “decreased viability”. The EC50 is 6.35 µM in the series with PBMC, 0.0799 ± 0.01 µM with KOPN-8, 0.0129 ± 0.002 µM in the series with UoC-B1 and 0.0322 ± 0.01 µM with NALM-06. Further, the aqueous solubility entry in the series “Aqueous solubility” is listed as “good”. The values for the half-life in “Plasma stability assay” (human plasma) and in the series “Plasma stability assay” (mouse plasma) were above 12 h and below 1 h, respectively.
On to `COC1=C[C@]23CCCN2CCc2cc4c(cc2[C@@H]3[C@@H]1O)OCO4` [Compound 9, cephalotaxine], for which the “caspase 3/7 activity” value with SUP-B15 is listed as “increased caspase 3/7 activity”. The “cytotoxicity by membrane integrity (bis-AAF-RF110)” value in the series on SUP-B15 is reported as “little cytotoxic effects”. The “viability (GF-AFC)” value with SUP-B15 is “decreased viability”. Besides, in the series with SUM149, the “reduction of cell viability” value is listed as 50%. Further, the EC50 in the series on PBMC is above 83 µM; in the series on KOPN-8 it was 23.1 ± 5.2 µM; in the series with UoC-B1, 17.6 ± 5.8 µM; in the series with NALM-06, 9.5 ± 2.7 µM. In the series “Aqueous solubility”, the aqueous solubility result is reported as “good”. In addition, the half-life in the series “Plasma stability assay” (human plasma) and in “Plasma stability assay” (mouse plasma) was above 25 h each time.

Broadly, the EC50 is the midpoint of the concentration-response curve. A higher EC50 goes with a need for much substance.
